Values joined by “and” are separate entries in the source; they are usually repeats but may differ in a detail not shown here. Identical values can stand only once.
What was measured:
Ba/F3-EGFR-WT cells = Ba/F3-EGFR-WT cells (Homo sapiens, UniProt P00533); experiment: Ba/F3 cell survival assay, wild type EGFR; assay type: cell-based; settings: Cell Titer-Glo, 48 h, with 10 ng/mL EGF; Table 4; read-out: BA/F3 (wild type) IC50
[1] = target: Ba/F3-EGFR-D770_N771insSVD cells (Homo sapiens, UniProt P00533, DUP768-770, cells depend on it); experiment: Ba/F3 cell survival assay, EGFR D770_N771insSVD; assay type: cell-based; settings: Cell Titer-Glo, 48 h, without IL-3; Table 4; read-out: BA/F3 (insSVD) IC50
Sequence of Ba/F3-EGFR-D770_N771insSVD cells (P00533 with tags, fused parts or gaps DUP768-770): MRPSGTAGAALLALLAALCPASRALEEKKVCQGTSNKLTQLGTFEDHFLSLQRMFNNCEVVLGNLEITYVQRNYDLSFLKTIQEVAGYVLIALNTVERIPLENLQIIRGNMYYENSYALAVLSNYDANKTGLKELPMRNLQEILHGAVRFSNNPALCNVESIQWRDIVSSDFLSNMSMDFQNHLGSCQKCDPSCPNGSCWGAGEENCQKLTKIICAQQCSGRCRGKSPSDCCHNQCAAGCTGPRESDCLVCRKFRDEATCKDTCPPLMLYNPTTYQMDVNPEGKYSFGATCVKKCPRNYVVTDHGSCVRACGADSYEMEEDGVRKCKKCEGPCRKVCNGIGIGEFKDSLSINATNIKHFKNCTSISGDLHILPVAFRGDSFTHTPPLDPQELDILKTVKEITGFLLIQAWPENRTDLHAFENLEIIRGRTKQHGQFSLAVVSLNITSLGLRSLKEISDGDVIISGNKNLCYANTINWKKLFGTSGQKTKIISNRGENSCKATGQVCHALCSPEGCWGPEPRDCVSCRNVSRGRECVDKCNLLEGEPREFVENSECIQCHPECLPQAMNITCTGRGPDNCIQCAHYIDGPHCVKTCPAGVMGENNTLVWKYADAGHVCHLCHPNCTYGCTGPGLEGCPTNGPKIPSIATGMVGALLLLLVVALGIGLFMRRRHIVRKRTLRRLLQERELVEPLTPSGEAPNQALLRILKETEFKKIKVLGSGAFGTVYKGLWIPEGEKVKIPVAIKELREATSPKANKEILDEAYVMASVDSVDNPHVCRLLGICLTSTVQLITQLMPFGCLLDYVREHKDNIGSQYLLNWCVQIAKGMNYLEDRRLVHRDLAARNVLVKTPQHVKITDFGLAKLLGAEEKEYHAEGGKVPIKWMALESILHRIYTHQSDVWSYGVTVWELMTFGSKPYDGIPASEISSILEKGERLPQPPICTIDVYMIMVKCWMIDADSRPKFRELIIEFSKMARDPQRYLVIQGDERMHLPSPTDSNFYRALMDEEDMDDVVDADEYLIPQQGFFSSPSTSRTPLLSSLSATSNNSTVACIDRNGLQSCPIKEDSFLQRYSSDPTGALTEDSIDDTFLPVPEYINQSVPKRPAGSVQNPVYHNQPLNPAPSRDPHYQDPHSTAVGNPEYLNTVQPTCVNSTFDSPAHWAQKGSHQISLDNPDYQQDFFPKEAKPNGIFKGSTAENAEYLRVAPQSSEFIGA

[2] = target: T1, EGFR with insertion SVD between D770 and N771 (mutEGFR D770_N771insSVD) (Homo sapiens, UniProt P00533, DUP768-770); experiment: Exon20-Mutant-EGFR(D770_N771insSVD) kinase assay (TR-FRET); assay type: biochemical; settings: 2 mM ATP, Table 2
T1 construct: amino acids R669 to A1210; made in house; host or cells: Sf9 insect cells (baculovirus)
T1 sequence (P00533 other isoform, or with tags, fused parts or gaps DUP768-770): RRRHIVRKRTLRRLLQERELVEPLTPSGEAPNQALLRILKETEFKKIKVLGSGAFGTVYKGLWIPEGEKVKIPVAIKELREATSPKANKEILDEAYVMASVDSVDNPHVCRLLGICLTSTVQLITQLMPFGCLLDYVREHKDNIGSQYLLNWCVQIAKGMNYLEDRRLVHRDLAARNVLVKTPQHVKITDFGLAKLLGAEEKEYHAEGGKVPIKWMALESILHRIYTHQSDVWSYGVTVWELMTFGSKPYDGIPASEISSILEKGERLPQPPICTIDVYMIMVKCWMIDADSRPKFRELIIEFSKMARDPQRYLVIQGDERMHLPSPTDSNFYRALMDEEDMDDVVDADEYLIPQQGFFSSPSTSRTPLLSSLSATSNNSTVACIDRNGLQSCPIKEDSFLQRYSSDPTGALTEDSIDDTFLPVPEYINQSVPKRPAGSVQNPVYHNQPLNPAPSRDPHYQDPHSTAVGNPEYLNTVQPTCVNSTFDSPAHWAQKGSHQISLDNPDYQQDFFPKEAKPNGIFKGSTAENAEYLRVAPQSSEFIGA

Bub1 = target: T2, Bub1 (Homo sapiens, UniProt O43683); experiment: Bub1 high ATP kinase assay (TR-FRET); assay type: biochemical; settings: Bub1 high ATP (2 mM) IC50, TR-FRET, 2 mM ATP; Table 3
T2 construct: catalytic domain of human Bub1 (amino acids 704-1085); His6 (N); made in house; host or cells: insect cells (Hi5)
T2 sequence (O43683 704-1085): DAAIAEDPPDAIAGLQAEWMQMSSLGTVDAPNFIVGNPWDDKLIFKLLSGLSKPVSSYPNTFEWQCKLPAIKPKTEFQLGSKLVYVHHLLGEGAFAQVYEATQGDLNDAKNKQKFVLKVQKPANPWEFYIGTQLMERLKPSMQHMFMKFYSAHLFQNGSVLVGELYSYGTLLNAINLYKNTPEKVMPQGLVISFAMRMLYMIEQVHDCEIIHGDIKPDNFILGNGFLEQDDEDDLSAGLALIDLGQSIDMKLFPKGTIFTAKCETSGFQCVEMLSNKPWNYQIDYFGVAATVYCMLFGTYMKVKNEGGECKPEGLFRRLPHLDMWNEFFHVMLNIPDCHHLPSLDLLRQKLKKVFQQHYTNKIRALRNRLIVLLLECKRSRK
Outline: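 Read-out was the 665/620 nm TR-FRET ratio after 1 h at 22 °C with EDTA stop mix (streptavidin-XL665, anti-phosphoserine antibody, Eu anti-mouse IgG). Beforehand, a biotinylated peptide was phosphorylated for 60 min at 22 °C under high ATP by His6-tagged human Bub1 residues 704-1085 expressed in Hi5 cells, about 200 ng/ml.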

Sequence of Ba/F3-EGFR-WT cells (P00533 whole entry, looked up, stated change not applied): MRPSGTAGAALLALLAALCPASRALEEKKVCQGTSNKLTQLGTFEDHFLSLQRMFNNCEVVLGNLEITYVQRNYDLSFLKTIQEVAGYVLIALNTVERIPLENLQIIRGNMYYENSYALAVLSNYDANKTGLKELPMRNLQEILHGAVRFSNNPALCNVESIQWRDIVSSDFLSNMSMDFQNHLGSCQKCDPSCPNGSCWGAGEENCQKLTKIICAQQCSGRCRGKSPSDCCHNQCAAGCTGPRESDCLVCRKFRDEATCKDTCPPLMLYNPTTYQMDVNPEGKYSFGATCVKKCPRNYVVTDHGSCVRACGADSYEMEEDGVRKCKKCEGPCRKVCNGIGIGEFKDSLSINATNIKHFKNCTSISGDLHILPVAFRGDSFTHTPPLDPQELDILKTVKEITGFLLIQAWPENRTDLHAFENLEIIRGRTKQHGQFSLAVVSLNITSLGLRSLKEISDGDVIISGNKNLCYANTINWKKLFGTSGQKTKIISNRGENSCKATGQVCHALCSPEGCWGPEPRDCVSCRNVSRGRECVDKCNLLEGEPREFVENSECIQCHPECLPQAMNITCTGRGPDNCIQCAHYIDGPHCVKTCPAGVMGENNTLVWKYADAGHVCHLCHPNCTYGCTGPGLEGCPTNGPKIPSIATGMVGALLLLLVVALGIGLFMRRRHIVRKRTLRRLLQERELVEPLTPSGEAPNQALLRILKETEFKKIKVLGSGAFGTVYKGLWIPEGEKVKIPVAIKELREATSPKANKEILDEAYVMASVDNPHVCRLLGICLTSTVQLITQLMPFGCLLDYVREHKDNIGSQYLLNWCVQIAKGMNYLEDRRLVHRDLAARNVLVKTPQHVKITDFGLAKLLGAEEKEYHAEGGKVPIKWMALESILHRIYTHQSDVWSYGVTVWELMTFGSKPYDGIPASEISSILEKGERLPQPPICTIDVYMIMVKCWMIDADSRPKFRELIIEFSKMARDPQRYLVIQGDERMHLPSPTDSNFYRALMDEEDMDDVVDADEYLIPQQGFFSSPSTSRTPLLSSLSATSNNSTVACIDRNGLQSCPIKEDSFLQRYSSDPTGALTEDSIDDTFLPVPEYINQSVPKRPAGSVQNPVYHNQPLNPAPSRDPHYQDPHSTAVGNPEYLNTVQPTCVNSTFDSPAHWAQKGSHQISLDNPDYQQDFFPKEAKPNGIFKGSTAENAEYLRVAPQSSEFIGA

Compound | GI50 (Ba/F3-EGFR-WT cells) [nM] | GI50 [1] [nM] | mutEGFR (D770_N771insSVD) kinase assay IC50 [2] | IC50 (Bub1)
COc1c(Cl)cccc1Nc1c(-c2ccncc2OCC2OCCCC2(F)F)[nH]c2c1C(=O)N[C@H](C)C2 (mixture of isomers) [Example 74, (6R)-3-(3-chloro-2-methoxy-anilino)-2-{3-[(3,3-difluorotetrahydropyran-2-yl)methoxy]-4-pyridyl}-6-methyl-1,5,6,7-tetrahydropyrrolo[3,2-c]pyridin-4-one] | 457 | 14 | 0.242 nM | > 20000 nM
COc1c(Cl)cccc1Nc1c(-c2ccncc2OCC2CCCCO2)[nH]c2c1C(=O)NCC2C (stereo not shown) [Example 44, 3-(3-chloro-2-methoxy-anilino)-7-methyl-2-[3-(tetrahydropyran-2-ylmethoxy)-4-pyridyl]-1,5,6,7-tetrahydropyrrolo[3,2-c]pyridin-4-one] | 594 | 40.5 | 0.195 nM | 6450 nM
COc1c(Cl)cccc1Nc1c(-c2ccncc2OCC2COCCO2)[nH]c2c1C(=O)N[C@@H]1CCC[C@H]21 (single isomer, unassigned) [Example 54] | 675 | 42.4 | 0.198 nM | 6190 nM
COc1c(Cl)cccc1Nc1c(-c2ccncc2OCCC2CCCCO2)[nH]c2c1C(=O)N[C@H](C)C2 (stereo partly drawn) [Example 86, (6R)-3-(3-chloro-2-methoxy-anilino)-6-methyl-2-[3-(2-tetrahydropyran-2-ylethoxy)-4-pyridyl]-1,5,6,7-tetrahydropyrrolo[3,2-c]pyridin-4-one] | 480 | 19.3 | 0.261 nM | 2400 nM
COc1c(Cl)cccc1Nc1c(-c2ccncc2OCCC(C)OC)[nH]c2c1C(=O)N[C@H](C)C2 (mixture of isomers) [Example 120, (6R)-3-(3-chloro-2-methoxy-anilino)-2-[3-(3-methoxybutoxy)-4-pyridyl]-6-methyl-1,5,6,7-tetrahydropyrrolo[3,2-c]pyridin-4-one] | 358 | 31.1 | 0.0901 nM | 1480 nM
COc1c(Cl)cccc1Nc1c(-c2ccncc2OCC2(C)CCO2)[nH]c2c1C(=O)NCC2CCO (single isomer, unassigned) [Example 22, 3-(3-chloro-2-methoxyanilino)-7-(2-hydroxyethyl)-2-{3-[(2-methyloxetan-2-yl)methoxy]pyridin-4-yl}-1,5,6,7-tetrahydro-4H-pyrrolo[3,2-c]pyridin-4-one] | 2630 | 616 | 0.66 nM | 11600 nM
COc1c(Cl)cccc1Nc1c(-c2ccncc2OCC2COCCO2)[nH]c2c1C(=O)N[C@@H]1CCC[C@H]21 (single isomer, unassigned) [Example 53] | 712 | 34.9 | 0.282 nM | 14500 nM
COc1c(Cl)cccc1Nc1c(-c2ccncc2OC[C@@H]2COCCN2C)[nH]c2c1C(=O)N[C@H](C)C2 [Example 93, (6R)-3-(3-chloro-2-methoxyanilino)-6-methyl-2-(3-{[(3S)-4-methylmorpholin-3-yl]methoxy}pyridin-4-yl)-1,5,6,7-tetrahydro-4H-pyrrolo[3,2-c]pyridin-4-one] | 254 | 8.67 | 0.4 nM | 5420 nM
COc1c(Cl)cccc1Nc1c(-c2ccncc2OC[C@@H]2CCCO2)[nH]c2c1C(=O)NC1(CCC1)C2 [Example 126, 3′-(3-chloro-2-methoxyanilino)-2′-(3-{[(2S)-oxolan-2-yl]methoxy}pyridin-4-yl)-1′,7′-dihydrospiro[cyclobutane-1,6′-pyrrolo[3,2-c]pyridin]-4′(5′H)-one] | 814 | 46.4 | 0.279 nM | 1100 nM
COc1c(Cl)cccc1Nc1c(-c2ccncc2OCC2CCCCO2)[nH]c2c1C(=O)NCC2C (single isomer, unassigned) [Example 48, 3-(3-chloro-2-methoxy-anilino)-7-methyl-2-[3-(tetrahydropyran-2-ylmethoxy)-4-pyridyl]-1,5,6,7-tetrahydropyrrolo[3,2-c]pyridin-4-one] | 611 | 25.7 | 0.227 nM | 9130 nM
COc1c(Cl)cccc1Nc1c(-c2ccncc2OCCC2CCCCO2)[nH]c2c1C(=O)N[C@H](C)C2 (single isomer, unassigned) [Example 88] | 634 | 70.4 | 0.326 nM | 978 nM
COc1c(Cl)cccc1Nc1c(-c2ccncc2OC[C@@H]2COCCN2C)[nH]c2c1C(=O)NCC2CCF (single isomer, unassigned) [Example 89] | 425 | 18.2 | 0.278 nM | 15600 nM
COc1c(Cl)cccc1Nc1c(-c2ccncc2OC[C@@H]2CCCO2)[nH]c2c1C(=O)N[C@@H]1CCC[C@H]21 [Example 56, (5aR,8aS)-3-(3-chloro-2-methoxyanilino)-2-(3-{[(2S)-oxolan-2-yl]methoxy}-4-pyridyl)-5,5a,6,7,8,8a-hexahydrocyclopenta[b]pyrrolo[2,3-d]pyridin-4(1H)-one] | 693 | 51.5 | 0.194 nM | 18500 nM and 18800 nM and > 20000 nM
COc1c(Cl)cccc1Nc1c(-c2ccncc2OCC2(C)CCO2)[nH]c2c1C(=O)NCC2CCO (stereo not shown) [Example 19, 3-(3-chloro-2-methoxyanilino)-7-(2-hydroxyethyl)-2-{3-[(2-methyloxetan-2-yl)methoxy]pyridin-4-yl}-1,5,6,7-tetrahydro-4H-pyrrolo[3,2-c]pyridin-4-one] | 684 | 86.5 | 0.279 nM | 13500 nM
COc1c(Cl)cccc1Nc1c(-c2ccncc2OCC2OCCCC2(F)F)[nH]c2c1C(=O)N[C@H](C)C2 (single isomer, unassigned) [Example 76] | 2440 | 177 | 0.24 nM | > 5700 nM
COc1c(Cl)cccc1Nc1c(-c2ccncc2OC[C@@H]2CCCO2)[nH]c2c1C(=O)NCC2CC=C(F)F (single isomer, unassigned) [Example 100] | 990 | 58.9 | 0.35 nM | 3640 nM
COc1c(Cl)cccc1Nc1c(-c2ccncc2OCC2COCCO2)[nH]c2c1C(=O)NC1(CCC1)C2 (stereo not shown) [Example 123, 3-(3-chloro-2-methoxy-anilino)-2-[3-(1,4-dioxan-2-ylmethoxy)-4-pyridyl]spiro[5,7-dihydro-1H-pyrrolo[3,2-c]pyridine-6,1′-cyclobutane]-4-one] | 604 | 33.9 | 0.241 nM | 439 nM
COc1c(Cl)cccc1Nc1c(-c2ccncc2OCC(C)(C)OC)[nH]c2c1C(=O)N[C@H](C)C2 [Example 1, (6R)-3-(3-chloro-2-methoxyanilino)-2-[3-(2-methoxy-2-methylpropoxy)pyridin-4-yl]-6-methyl-1,5,6,7-tetrahydro-4H-pyrrolo[3,2-c]pyridin-4-one] | 417 | 17.8 | 0.135 nM | 1320 nM
COc1c(Cl)cccc1Nc1c(-c2ccncc2OCC2COC(C)(C)CO2)[nH]c2c1C(=O)N[C@H](C)C2 (single isomer, unassigned) [Example 79] | 1910 | 151 | 0.455 nM | 17300 nM and > 20000 nM
COc1c(Cl)cccc1Nc1c(-c2ccncc2OCC2COCCO2)[nH]c2c1C(=O)N[C@H](C)C2 (mixture of isomers) [Example 24, (6R)-3-(3-chloro-2-methoxy-anilino)-2-[3-(1,4-dioxan-2-ylmethoxy)-4-pyridyl]-6-methyl-1,5,6,7-tetrahydropyrrolo[3,2-c]pyridin-4-one] | 500 | 20.8 | 0.111 nM and <0.0725 nM | 3480 nM
COc1c(Cl)cccc1Nc1c(-c2ccncc2OC[C@@H]2CCCCO2)[nH]c2c1C(=O)NC1(CCC1)C2 [Example 127, 3′-(3-chloro-2-methoxyanilino)-2′-(3-{[(2S)-oxan-2-yl]methoxy}pyridin-4-yl)-1′,7′-dihydrospiro[cyclobutane-1,6′-pyrrolo[3,2-c]pyridin]-4′(5′H)-one] | 406 | 12.1 | 0.51 nM | 1440 nM
COc1c(Cl)cccc1Nc1c(-c2ccncc2OCC2(C)CCO2)[nH]c2c1C(=O)NCC2CCO (single isomer, unassigned) [Example 21, 3-(3-chloro-2-methoxyanilino)-7-(2-hydroxyethyl)-2-{3-[(2-methyloxetan-2-yl)methoxy]pyridin-4-yl}-1,5,6,7-tetrahydro-4H-pyrrolo[3,2-c]pyridin-4-one] | 943 | 67.9 | 0.473 nM | > 20000 nM

Source: patent US20230064983A1 (priority 2020, published 2023)
